Laboratory results as given in patent US20090239880A1, “COMBINATIONS OF MONOAMINE REUPTAKE INHIBITORS AND POTASSIUM CHANNEL ACTIVATORS” (priority 2006, published 2009).
Where a name gives a salt, the structure may show the parent alone.

Experiments:
NMRI mice [1] = experiment: nialamide induced 5-HT syndrome paradigm; format: in vivo; conditions: nialamide 50 mg/kg s.c. at -120 min, test compound 0.3-3 mg/kg i.p. combined with sub-threshold citalopram 1 mg/kg p.o. at 0 min
Method: Method: Mice were administered nialamide (50 mg/kg, s.c., −120 min) followed by the test compound (0.3-3 mg/kg, i.p.) and citalopram (1 mg/kg, p.o) at time-point 0 min. The presence of head twitches, hindlimb abduction, head weaving, and piano playing behaviours were then scored by a trained observer using a recognised rating scale: maximum score/mouse=4, minimum score/mouse=0.

SK3 channels = SK3 channels (Homo sapiens, UniProt Q9UGI6); experiment: inhibition of SK3 channels in patchclamp electrophysiology (selectivity over monoamine reuptake in vitro); format: cell-based; conditions: patchclamp electrophysiology vs [3H]DA, [3H]5-HT and [3H]NA reuptake in vitro
NMRI mice [2] = experiment: reversal of tetrabenazine-induced ptosis; format: in vivo; conditions: test compound 0.3-3 mg/kg i.p. combined with sub-threshold reboxetine 0.1 mg/kg p.o. at -60 min, tetrabenazine 40 mg/kg i.p. at -30 min
Method: Method: Mice were administered the test compound (0.3-3 mg/kg, i.p.) and reboxetine (0.1 mg/kg, p.o.) at timepoint −60 min, followed by tetrabenazine (40 mg/kg, i.p., −30 min). The presence of ptosis was then scored by a trained observer using a recognised rating scale: maximum score/mouse=4, minimum score/mouse=0.

melting point | Structure (SMILES) | further results
> 230 °C (dec.) | c1ccc(C(c2ccccc2)N2CCN(c3nc4ccccc4[nH]3)CC2)cc1 [Example 6, 2-(4-Benzhydrylpiperazin-1-yl)-1H-benzoimidazole] | 
237 to 239 °C | OC(c1ccccc1)(c1ccccc1)C1CCN(c2nc3ccccc3[nH]2)CC1 [Example 3, [1(1H-Benzoimidazol-2-yl)-piperidin-4-yl]diphenylmethanol] | 
229 to 230 °C | c1ccc(C(=C2CCN(c3nc4ccccc4[nH]3)CC2)c2ccccc2)cc1 [Example 12, 2-(4-Benzhydrylidene-piperidin-1-yl)-1H-benzoimidazole] | 
256 to 258 °C | c1ccc(C(c2ccccc2)C2CCN(c3nc4ccccc4[nH]3)CC2)cc1 [Example 13, 2-(4-Benzhydryl-piperidin-1-yl)-1H-benzoimidazole] | 

Second part, the compound before the results:

Structure (SMILES) | melting point | further results
Fc1ccc(C(c2ccc(F)cc2)N2CCN(c3nc4ccccc4[nH]3)CC2)cc1 (as salt: hydrochloride) [Example 9, 2-{4-[Bis-(4-fluorophenyl)methyl]piperazin-1-yl}-1H-benzoimidazole] | > 240 °C (dec.) | 
Fc1ccc(Cn2c(N3CCC(Cc4ccccc4)CC3)nc3ccccc32)cc1F [Example 5, 2-(4-Benzylpiperidin-1-yl)-1-(3,4-difluorobenzyl)-1H-benzoimidazole] | 155 to 155.5 °C | 
Clc1ccc(OC2CCN(c3nc4ccccc4[nH]3)CC2)cc1Cl (as salt: hydrochloride) [Example 10, 2-[4-(3,4-Dichlorophenoxy)piperidin-1-yl]-1H-benzoimidazole] | 297 to 298 °C | 
N=c1n(Cc2ccc(F)c(F)c2)c2ccccc2n1Cc1ccc(F)c(F)c1 [test compound, 1,3-Bis-(3,4-difluoro-benzyl)-1,3-dihydro-benzoimidazol-2-ylideneamine] |  | effect on ability of citalopram to induce symptoms analagous to the serotonin syndrome (5-HT syndrome score) (NMRI mice [1]): enhanced the ability of the latter to induce symptoms analagous to the serotonin syndrome; selectivity for inhibition of SK3 channels over inhibiton of [3H]DA, [3H]5-HT and [3H]NA reuptake (SK3 channels): more than 100 fold; effect on ability of reboxetine to reverse tetrabenazine-induced ptosis (ptosis score) (NMRI mice [2]): enhanced the ability of the latter to reverse tetrabenazine-incuced ptosis
c1ccc(CC2CCN(c3nc4ccccc4[nH]3)CC2)cc1 [Example 2, 2-(4-Benzylpiperidin-1-yl)-1H-benzoimidazole] | 193 to 194 °C | 
FC(F)(F)c1cc(Cn2c(N3CCC(Cc4ccccc4)CC3)nc3ccccc32)ccc1Cl [Example 4, 2-(4-Benzylpiperidin-1-yl)-1-[4-chloro-3-(trifluoromethyl)benzyl]-1H-benzoimidazole] | 124 to 125.5 °C | 
Clc1ccc(CC2CCN(c3nc4ccccc4[nH]3)CC2)cc1Cl (as salt: salt) [Example 1, 2-[4-(3,4-Dichlorobenzyl)piperidin-1-yl]-1H-benzoimidazole] | 268 to 270 °C | 
